# Experimental data reported in patent publication US7060824B2, “Pyrrolotriazolopyrimidinone derivatives” (Almirall Prodesfarma, S.A., priority 2000, dated 2006).
# pIC50: −log10 of the molar value.
# Target: T1, cyclic GMP specific phosphodiesterase (PDE 5) (Homo sapiens, UniProt O76074)
# T1 construct: was isolated from human platelet lysates by ion exchange chromatography using a Mono-Q column; from tissue; host or cells: human platelets (lysate, Mono-Q ion exchange fraction)
# Test: PDE 5 inhibition, enzyme isolated from human platelet lysates, [3H]-cyclic GMP substrate
# Format: biochemical
# Details: enzyme from human platelet lysates (Mono-Q); 0.25 mM [3H]-cyclic GMP as substrate; read-out: IC50 PDE5
# Description: The cyclic GMP specific phosphodiesterase (PEE 5) was isolated from human platelet lysates by ion exchange chromatography using a Mono-Q column. The enzyme activity was determined using 0.25 mM [3H]-cyclic GMP as substrate. The purification of the enzyme and the assessment of the PDE 5 inhibitory activity of our compounds were performed essentially as described by Gristwood et al., Br. J. Pharmacol. 1992, 105, 985–991.
row,SMILES,pIC50
1,"C=CCN1CCN(S(=O)(=O)c2ccc(OCCC)c(-c3[nH]c4c(c3Cl)n(CCC)c(=O)n3cnnc43)c2)CC1 [Example 45, 8-[5-(4-Allylpiperazine-1-sulfonyl)-2-propoxyphenyl]-7-chloro-6-propyl-6,9-dihydro-5H-pyrrolo[2,3-e][1,2,4]triazolo[4,3-c]pyrimidine-5-one]",9.68
2,"CCCn1c(=O)n2cnnc2c2[nH]c(-c3cc(S(=O)(=O)N4C[C@@H]5C[C@H]4CN5C)ccc3OCC)c(Cl)c21 [Example 79, 7-Chloro-8-[2-ethoxy-5-((1S, 4S)-5-methyl-2,5-diazabicyclo[2.2.1]heptane-2-sulfonyl)phenyl]-6-propyl-6,9-dihydro-5H-pyrrolo[2,3-e][1,2,4]triazolo[4,3-c]pyrimidine-5-one]",9.72
3,"CCCOc1ccc(S(=O)(=O)N2CCN(CCCO)CC2)cc1-c1[nH]c2c(c1Cl)n(CCC)c(=O)n1cnnc21 [Example 34, 7-Chloro-8-{5-[4-(3-hydroxypropyl)piperazine-1-sulfonyl)-2-propoxyphenyl]-6-propyl-6,9-dihydro-5H-pyrrolo[2,3-e][1,2,4]triazolo[4,3-c]pyrimidine-5-one]",9.66
4,"CCCOc1ccc(S(=O)(=O)NCCO)cc1-c1[nH]c2c(c1Cl)n(CCC)c(=O)n1cnnc21 [Example 50, 3-(7-Chloro-5-oxo-6-propyl-6,9-dihydro-5H-pyrrolo[2,3-e][1,2,4]triazolo[4,3-c]pyrimidin-8-yl)-N-(2-hydroxyethyl)-4-propoxybenzenesulfonamide]",9.82
5,"CCCn1c(=O)n2cnnc2c2[nH]c(-c3cc(S(=O)(=O)N4CCCN(C)CC4)ccc3OCC)c(Cl)c21 [Example 11, 7-Chloro-8-[2-ethoxy-5-(4-methyl-[1,4]diazepane-1-sulfonyl)phenyl]-6-propyl-6,9-dihydro-5H-pyrrolo[2,3-e][1,2,4]triazolo[4,3-c]pyrimidine-5-one]",10.00
6,"CCCOc1ccc(S(=O)(=O)N2CCNCC2)cc1-c1[nH]c2c(c1Br)n(CCC)c(=O)n1cnnc21 [Example 74, 7-Bromo-8-[5-(piperazine-1-sulfonyl)-2-propoxyphenyl]-6-propyl-6,9-dihydro-5H-pyrrolo[2,3-e][1,2,4]triazolo[4,3-c]pyrimidine-5-one]",9.60
7,"CCCn1c(=O)n2cnnc2c2[nH]c(-c3cc(S(=O)(=O)N4CCN5CCC[C@H]5C4)ccc3OCC)c(Cl)c21 [Example 75, 7-Chloro-8-[2-ethoxy-5-((S)-hexahydropyrrolo[1,2-a]pyrazine-2-sulfonyl)phenyl]-6-propyl-6,9-dihydro-5H-pyrrolo[2,3-e][1,2,4]triazolo[4,3-c]pyrimidine-5-one]",9.72
8,"CCCOc1ccc(S(=O)(=O)N2CCN(CCO)CC2)cc1-c1[nH]c2c(c1Br)n(CCC)c(=O)n1cnnc21 [Example 73, 7-Bromo-8-{5-[4-(2-hydroxyethyl)piperazine-1-sulfonyl]-2-propoxyphenyl}-6-propyl-6,9-dihydro-5H-pyrrolo[2,3-e][1,2,4]triazolo[4,3-c]pyrimidine-5-one]",9.48

# The remaining lines, values ahead:
row,pIC50,SMILES
1,9.77,"CCCOc1ccc(S(=O)(=O)NC2CC(C)(C)NC(C)(C)C2)cc1-c1[nH]c2c(c1Cl)n(CCC)c(=O)n1cnnc21 [Example 41, 3-(7-Chloro-5-oxo-6-propyl-6,9-dihydro-5H-pyrrolo[2,3-e][1,2,4]triazolo[4,3-c]pyrimidin-8-yl)-4-propoxy-N-(2,2,6,6-tetramethylpiperidin-4-yl)benzenesulfonamide]"
2,10.38,"CCCn1c(=O)n2cnnc2c2[nH]c(-c3cc(S(=O)(=O)N4CCN(CCOCC)CC4)ccc3OCC)c(Cl)c21 [Example 24, 7-Chloro-8-{2-ethoxy-5-[4-(2-ethoxyethyl)piperazine-1-sulfonyl]phenyl}-6-propyl-6,9-dihydro-5H-pyrrolo[2,3-e][1,2,4]triazolo[4,3-c]pyrimidine-5-one]"
3,9.92,"CCCOc1ccc(S(=O)(=O)N2CCCN(CCO)CC2)cc1-c1[nH]c2c(c1Br)n(CCC)c(=O)n1cnnc21 [Example 71, 7-Bromo-8-(5-[4-(2-Hydroxyethyl)-[1,4]diazepane-1-sulfonyl]-2-propoxyphenyl}-6-propyl-6,9-dihydro-5H-pyrrolo[2,3-e][1,2,4]triazolo[4,3-c]pyrimidine-5-one]"
4,9.52,"CCCOc1ccc(S(=O)(=O)N2CCN(C)CC2)cc1-c1[nH]c2c(c1Br)n(CCC)c(=O)n1cnnc21 [Example 58, 7-Bromo-8-[5-(4-methylpiperazine-1-sulfonyl)-2-propoxyphenyl]-6-propyl-6,9-dihydro-5H-pyrrolo[2,3-e][1,2,4]triazolo[4,3-c]pyrimidine-5-one]"
